Experimental data published in patent publication US12187746B2, “C26-linked rapamycin analogs as mTOR inhibitors” (Revolution Medicines, Inc., priority 2018, dated 2025).

How the values were obtained:
[1] = tested on: P-Akt (S473); assay: Cell based AlphaLISA assay, inhibition of P-Akt (S473) in MDA-MB-468 cells; conditions: Homo sapiens, 4 h, 0.017-1,000 nM, two to four hours at 37° C., AlphaLisa SureFire Ultra, read-out: pIC50 for Inhibition of mTORC1 and mTORC2 Substrate Phosphorylation, p-AKT1/2/3-(S473) (converted)
Procedure, shortened: (§1)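 mTORC1 and mTORC2 activity in cells tracked through AlphaLISA SureFire Ultra detection of the phosphoproteins after incubation and cell lysis; Alpha signal read in duplicate. IC50 from normalized concentration–response regression with control-based normalization.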

[2] = tested on: P-4E-BP1 (T37/46); assay: Cell based AlphaLISA assay, inhibition of P-4E-BP1 (T37/46) in MDA-MB-468 cells; conditions: Homo sapiens, 4 h, 0.017-1,000 nM, two to four hours at 37° C., AlphaLisa SureFire Ultra, read-out: pIC50 for Inhibition of mTORC1 and mTORC2 Substrate Phosphorylation, p-4E-BP1-(T37/46) (converted)
Procedure, shortened: as §1

[3] = tested on: P-P70S6K (T389); assay: Cell based AlphaLISA assay, inhibition of P-P70S6K (T389) in MDA-MB-468 cells; conditions: Homo sapiens, 4 h, 0.017-1,000 nM, two to four hours at 37° C., AlphaLisa SureFire Ultra, read-out: pIC50 for Inhibition of mTORC1 and mTORC2 Substrate Phosphorylation, p-P70S6K-(T389) (converted)
Procedure, shortened: as §1

SMILES	IC50 [1]	IC50 [2]	IC50 [3]
COc1ccc(-c2ccc3ncc4c(c3c2)n(-c2ccc(N3CCN(c5ncc6c(n5)CCN(C(=O)c5cnc(N7CCN(CCOCCC(=O)N8CCN(c9ncc(CNC(=O)CON=C%10[C@H](C)C[C@H](C)/C=C/C=C/C=C(\C)[C@@H](OC)C[C@@H]%11CC[C@@H](C)[C@@](O)(O%11)C(=O)C(=O)N%11CCCC[C@H]%11C(=O)O[C@H]([C@H](C)C[C@@H]%11CC[C@@H](O)[C@H](OC)C%11)C[C@@H](O)[C@H](C)/C=C(\C)[C@@H](O)[C@H]%10OC)cn9)CC8)CC7)nc5)C6)CC3)c(C(F)(F)F)c2)c(=O)n4C)cn1 [Example 33]	> 1 µM	> 1 µM	0.01 to 1 µM
CO[C@H]1C[C@@H]2CC[C@@H](C)[C@@](O)(O2)C(=O)C(=O)N2CCCC[C@H]2C(=O)O[C@H]([C@H](C)C[C@@H]2CC[C@@H](O)[C@H](OC)C2)C[C@@H](O)[C@H](C)/C=C(\C)[C@@H](O)[C@@H](OC)C(=NOCC(=O)NCc2cnc(N3CCN(c4ncc(C(=O)NCCOCCC(=O)NCCCCn5nc(-c6ccc7oc(N)nc7c6)c6c(N)ncnc65)c(N)n4)CC3)nc2)[C@H](C)C[C@H](C)/C=C/C=C/C=C/1C [Example 51]	> 1 µM	> 1 µM	0.01 to 1 µM
CO[C@H]1C[C@@H]2CC[C@@H](C)[C@@](O)(O2)C(=O)C(=O)N2CCCC[C@H]2C(=O)O[C@H]([C@H](C)C[C@@H]2CC[C@@H](O)[C@H](OC)C2)CC[C@H](C)/C=C(\C)[C@@H](O)[C@@H](OC)C(=NOCC(=O)NCCOCCOCCOCCOCCOCCOCCOCCOCCC(=O)N2CCc3cc(Cn4nc(-c5ccc6oc(N)nc6c5)c5c(N)ncnc54)ccc3C2)[C@H](C)C[C@H](C)/C=C/C=C/C=C/1C [Example 67]	0.0316 to 1 µM	< 0.00316 µM	< 0.001 µM
CO[C@H]1C[C@@H]2CC[C@@H](C)[C@@](O)(O2)C(=O)C(=O)N2CCCC[C@H]2C(=O)O[C@H]([C@H](C)C[C@@H]2CC[C@@H](O)[C@H](OC)C2)C[C@@H](O)[C@H](C)/C=C(\C)[C@@H](O)[C@@H](OC)C(=NOCC(=O)NCc2cnc(N3CCN(CCOCCN4CCN(c5ncc(C(=O)N6CCc7cc(Cn8nc(-c9ccc%10oc(N)nc%10c9)c9c(N)ncnc98)ccc7C6)cn5)CC4)CC3)nc2)[C@H](C)C[C@H](C)/C=C/C=C/C=C/1C [Example 59]	> 1 µM	0.00316 to 0.0316 µM	< 0.001 µM
CO[C@H]1C[C@@H]2CC[C@@H](C)[C@@](O)(O2)C(=O)C(=O)N2CCCC[C@H]2C(=O)O[C@H]([C@H](C)C[C@@H]2CC[C@@H](O)[C@H](OC)C2)C[C@@H](O)[C@H](C)/C=C(\C)[C@@H](O)[C@@H](OC)C(=NOCC(=O)NCCOCCC(=O)NCc2cnc(N3CCN(C(=O)CCOCCN4CCN(c5ncc(C(=O)NCCCCn6nc(-c7ccc8oc(N)nc8c7)c7c(N)ncnc76)cn5)CC4)CC3)nc2)[C@H](C)C[C@H](C)/C=C/C=C/C=C/1C [Example 43]	0.0316 to 1 µM	0.00316 to 0.0316 µM	< 0.001 µM
CO[C@H]1C[C@@H]2CC[C@@H](C)[C@@](O)(O2)C(=O)C(=O)N2CCCC[C@H]2C(=O)O[C@H]([C@H](C)C[C@@H]2CC[C@@H](O)[C@H](OC)C2)C[C@@H](O)[C@H](C)/C=C(\C)[C@@H](O)[C@@H](OC)C(=NOc2cccc(C(=O)NCc3cnc(N4CCN(C(=O)CCOCCN5CCN(c6ncc(C(=O)N7CCc8cc(Cn9nc(-c%10ccc%11oc(N)nc%11c%10)c%10c(N)ncnc%109)ccc8C7)cn6)CC5)CC4)nc3)c2)[C@H](C)C[C@H](C)/C=C/C=C/C=C/1C [Example 35]	> 1 µM	> 1 µM	0.01 to 1 µM
CO[C@H]1C[C@@H]2CC[C@@H](C)[C@@](O)(O2)C(=O)C(=O)N2CCCC[C@H]2C(=O)O[C@H]([C@H](C)C[C@@H]2CC[C@@H](O)[C@H](OC)C2)C[C@@H](O)[C@H](C)/C=C(\C)[C@@H](O)[C@@H](OC)C(=NOCC(=O)NCCOCCOCCOCCOCCOCCOCCC(=O)N2CCC(N3CCC(C(=O)N4CCc5cc(Cn6nc(-c7ccc8oc(N)nc8c7)c7c(N)ncnc76)ccc5C4)CC3)CC2)[C@H](C)C[C@H](C)/C=C/C=C/C=C/1C [Example 28]	0.0316 to 1 µM	0.00316 to 0.0316 µM	0.001 to 0.01 µM
CO[C@H]1C[C@@H]2CC[C@@H](C)[C@@](O)(O2)C(=O)C(=O)N2CCCC[C@H]2C(=O)O[C@H]([C@H](C)C[C@@H]2CC[C@@H](O)[C@H](OC)C2)C[C@@H](O)[C@H](C)/C=C(\C)[C@@H](O)[C@@H](OC)/C(=N/OCC(=O)NCCOCCOCCOCCOCCOCCOCCC(=O)NCCCCn2nc(-c3ccc4oc(N)nc4c3)c3c(N)ncnc32)[C@H](C)C[C@H](C)/C=C/C=C/C=C/1C [Example 3]	0.0316 to 1 µM	0.00316 to 0.0316 µM	< 0.001 µM
CO[C@H]1C[C@@H]2CC[C@@H](C)[C@@](O)(O2)C(=O)C(=O)N2CCCC[C@H]2C(=O)O[C@H]([C@H](C)C[C@@H]2CC[C@@H](O)[C@H](OC)C2)C[C@@H](O)[C@H](C)/C=C(\C)[C@@H](O)[C@@H](OC)C(=NOCC(=O)NCCOCCOCCOCCOCCC(=O)N2CCN(c3ncc(C(=O)NCCCCn4nc(-c5ccc6oc(N)nc6c5)c5c(N)ncnc54)cn3)CC2)[C@H](C)C[C@H](C)/C=C/C=C/C=C/1C [Example 27]	0.0316 to 1 µM	0.00316 to 0.0316 µM	0.001 to 0.01 µM
CO[C@H]1C[C@@H]2CC[C@@H](C)[C@@](O)(O2)C(=O)C(=O)N2CCCC[C@H]2C(=O)O[C@H]([C@H](C)C[C@@H]2CC[C@@H](O)[C@H](OC)C2)C[C@@H](O)[C@H](C)/C=C(\C)[C@@H](O)[C@@H](OC)C(=NOC(C)(C)C(=O)NCCOCCOCCOCCOCCOCCOCCC(=O)N2CCc3cc(Cn4nc(-c5ccc6oc(N)nc6c5)c5c(N)ncnc54)ccc3C2)[C@H](C)C[C@H](C)/C=C/C=C/C=C/1C [Example 48]	> 1 µM	0.00316 to 0.0316 µM	0.01 to 1 µM
CO[C@H]1C[C@@H]2CC[C@@H](C)[C@@](O)(O2)C(=O)C(=O)N2CCCC[C@H]2C(=O)O[C@H]([C@H](C)C[C@@H]2CC[C@@H](O)[C@H](OC)C2)C[C@@H](O)[C@H](C)/C=C(\C)[C@@H](O)[C@@H](OC)C(=NOCC(=O)NCCOCCC(=O)N2CCc3nc(N4CCN(c5ncc(C(=O)N6CCc7cc(Cn8nc(-c9ccc%10oc(N)nc%10c9)c9c(N)ncnc98)ccc7C6)cn5)CC4)ncc3C2)[C@H](C)C[C@H](C)/C=C/C=C/C=C/1C [Example 26]	> 1 µM	0.00316 to 0.0316 µM	0.001 to 0.01 µM
CO[C@H]1C[C@@H]2CC[C@@H](C)[C@@](O)(O2)C(=O)C(=O)N2CCCC[C@H]2C(=O)O[C@H]([C@H](C)C[C@@H]2CC[C@@H](O)[C@H](OC)C2)C[C@@H](O)[C@H](C)/C=C(\C)[C@@H](O)[C@@H](OC)C(=NOCC(=O)N2CCc3nc(N4CCN(c5ncc(C(=O)NCCOCCC(=O)NCCCCn6nc(-c7ccc8oc(N)nc8c7)c7c(N)ncnc76)cn5)CC4)ncc3C2)[C@H](C)C[C@H](C)/C=C/C=C/C=C/1C [Example 17]	> 1 µM	0.00316 to 0.0316 µM	0.001 to 0.01 µM
CO[C@H]1C[C@@H]2CC[C@@H](C)[C@@](O)(O2)C(=O)C(=O)N2CCCC[C@H]2C(=O)O[C@H]([C@H](C)C[C@@H]2CC[C@@H](O)[C@H](OC)C2)C[C@@H](O)[C@H](C)/C=C(\C)[C@@H](O)[C@@H](OC)C(=NOCC(=O)NCCOCCOCCOCCOCCOCCOCCOCCOCCC(=O)N2CCc3cc(Cn4nc(-c5ccc6oc(N)nc6c5)c5c(N)ncnc54)ccc3C2)[C@H](C)C[C@H](C)/C=C/C=C/C=C/1C [Example 4]	0.0316 to 1 µM	0.00316 to 0.0316 µM	< 0.001 µM
CO[C@H]1C[C@@H]2CC[C@@H](C)[C@@](O)(O2)C(=O)C(=O)N2CCCC[C@H]2C(=O)O[C@H]([C@H](C)C[C@@H]2CC[C@@H](O)[C@H](OC)C2)C[C@@H](O)[C@H](C)/C=C(\C)[C@@H](O)[C@@H](OC)C(=NOCC(=O)NCCOCCOCCOCCOCCOCCOCCOCCOCCC(=O)NCCCCn2nc(-c3cnc4[nH]ccc4c3)c3c(N)ncnc32)[C@H](C)C[C@H](C)/C=C/C=C/C=C/1C [Example 6]	> 1 µM	0.00316 to 0.0316 µM	0.001 to 0.01 µM
CO[C@H]1C[C@@H]2CC[C@@H](C)[C@@](O)(O2)C(=O)C(=O)N2CCCC[C@H]2C(=O)O[C@H]([C@H](C)C[C@@H]2CC[C@@H](O)[C@H](OC)C2)C[C@@H](O)[C@H](C)/C=C(\C)[C@@H](O)[C@@H](OC)C(=NOCC(=O)NCCOCCOCCOCCOCCOCCOCCOCCOCCC(=O)NCCS(=O)(=O)c2ccc(C(=O)N3CCOc4ccc(-c5ccc(N)nc5)cc4C3)c(C)c2)[C@H](C)C[C@H](C)/C=C/C=C/C=C/1C [Example 45]	> 1 µM	0.00316 to 0.0316 µM	0.001 to 0.01 µM
